Data as given in patent US12516056B2, “Compounds for inhibition of janus kinase 1” (MANKIND PHARMA LTD., priority 2019, dated 2026).

Legend:
Recombinant JAK3 = target: T1, Recombinant JAK3 (Homo sapiens, UniProt P52333); experiment: JAK biochemical assay (LANCE Ultra TR-FRET), JAK3; conditions: recombinant JAK3, TR-FRET; read-out: Biochemical Assay (μM) JAK3
T1 construct: purchased Carna Biosciences
T1 sequence (P52333 1-1124): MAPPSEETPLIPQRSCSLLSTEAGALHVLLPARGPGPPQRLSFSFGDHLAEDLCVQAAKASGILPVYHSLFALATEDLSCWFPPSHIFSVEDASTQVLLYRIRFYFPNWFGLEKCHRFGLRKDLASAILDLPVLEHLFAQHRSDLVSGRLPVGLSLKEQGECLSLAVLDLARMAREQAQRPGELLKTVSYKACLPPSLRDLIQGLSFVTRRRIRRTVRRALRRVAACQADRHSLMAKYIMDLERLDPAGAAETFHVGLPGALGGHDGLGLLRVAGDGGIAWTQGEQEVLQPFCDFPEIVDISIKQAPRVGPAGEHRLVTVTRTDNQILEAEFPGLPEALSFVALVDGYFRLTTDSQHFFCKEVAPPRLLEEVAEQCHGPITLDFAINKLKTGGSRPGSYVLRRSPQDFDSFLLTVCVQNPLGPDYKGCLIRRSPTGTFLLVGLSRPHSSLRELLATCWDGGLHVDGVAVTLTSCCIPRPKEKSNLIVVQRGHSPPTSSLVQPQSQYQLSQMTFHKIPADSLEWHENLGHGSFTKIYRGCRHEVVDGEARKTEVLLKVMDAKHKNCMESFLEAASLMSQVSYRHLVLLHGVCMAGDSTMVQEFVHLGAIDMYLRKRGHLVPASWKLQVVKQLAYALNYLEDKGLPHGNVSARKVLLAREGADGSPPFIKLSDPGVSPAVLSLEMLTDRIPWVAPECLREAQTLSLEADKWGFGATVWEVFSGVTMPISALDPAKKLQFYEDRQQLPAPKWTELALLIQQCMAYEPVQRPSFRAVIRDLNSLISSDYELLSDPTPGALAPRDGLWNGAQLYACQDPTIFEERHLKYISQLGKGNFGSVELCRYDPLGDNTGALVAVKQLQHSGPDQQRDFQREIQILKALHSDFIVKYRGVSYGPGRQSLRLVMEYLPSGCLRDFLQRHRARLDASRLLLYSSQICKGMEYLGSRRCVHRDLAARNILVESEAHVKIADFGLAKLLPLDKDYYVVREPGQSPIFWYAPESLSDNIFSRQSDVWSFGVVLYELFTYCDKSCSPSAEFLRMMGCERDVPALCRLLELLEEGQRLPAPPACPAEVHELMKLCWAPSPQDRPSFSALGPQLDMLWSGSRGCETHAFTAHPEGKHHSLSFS
Method in brief: (§1)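 Kinase reactions ran in buffer of 50 mM HEPES pH 7.5 with 1 mM EGTA, 10 mM MgCl2, 2 mM DTT and 0.01% Tween-20, using recombinant enzyme. Phosphorylated ULight substrate was detected by TR-FRET, and compound effect expressed as % inhibition against vehicle.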

Recombinant JAK2 = target: T2, Recombinant JAK2 (Homo sapiens, UniProt O60674); experiment: JAK biochemical assay (LANCE Ultra TR-FRET), JAK2; conditions: recombinant JAK2, TR-FRET; read-out: Biochemical Assay (μM) JAK2
T2 construct: purchased Carna Biosciences
Method in brief: as §1

Recombinant TYK2 = target: T3, Recombinant TYK2 (Homo sapiens, UniProt P29597); experiment: JAK biochemical assay (LANCE Ultra TR-FRET), TYK2; conditions: recombinant TYK2, TR-FRET; read-out: Biochemical Assay (μM) TYK2
T3 construct: purchased Carna Biosciences
Method in brief: as §1

[1] = test system: STAT3 phosphorylation by IL-6 in TF-1 cells; experiment: JAK cellular assay: STAT3 phosphorylation by IL-6 in TF-1 cells (HTRF); type: cell-based; conditions: Homo sapiens, TF-1, TF-1 cells, IL-6 30 ng/ml, pSTAT3 HTRF; read-out: Cell Based Assay (μM) TF-1/IL-6/pSTAT3
Method in brief: (§2)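 TF-1 cells starved overnight in low-serum OptiMEM, then 120,000/well in RPMI, preincubated with compound 30 min at 37 °C (0.2% DMSO final). Stimulation 20 min with IL-6 30 ng/ml (pSTAT3) or GMCSF 5 ng/ml (pSTAT5); lysate phospho-STAT by HTRF, unstimulated background subtracted.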

Recombinant JAK1 = target: T4, Recombinant JAK1 (Homo sapiens, UniProt P23458); experiment: JAK biochemical assay (LANCE Ultra TR-FRET), JAK1; conditions: recombinant JAK1, TR-FRET; read-out: Biochemical Assay (μM) JAK1
T4 construct: purchased Carna Biosciences
Method in brief: as §1

[2] = test system: STAT5 phosphorylation by GMCSF in TF-1 cells; experiment: JAK cellular assay: STAT5 phosphorylation by GMCSF in TF-1 cells (HTRF); type: cell-based; conditions: Homo sapiens; TF-1 cells, GMCSF 5 ng/ml, pSTAT5 HTRF; read-out: Cell Based Assay (μM) TF-1/GMCSF/pSTAT5
Method in brief: as §2

T2 sequence (O60674 whole entry): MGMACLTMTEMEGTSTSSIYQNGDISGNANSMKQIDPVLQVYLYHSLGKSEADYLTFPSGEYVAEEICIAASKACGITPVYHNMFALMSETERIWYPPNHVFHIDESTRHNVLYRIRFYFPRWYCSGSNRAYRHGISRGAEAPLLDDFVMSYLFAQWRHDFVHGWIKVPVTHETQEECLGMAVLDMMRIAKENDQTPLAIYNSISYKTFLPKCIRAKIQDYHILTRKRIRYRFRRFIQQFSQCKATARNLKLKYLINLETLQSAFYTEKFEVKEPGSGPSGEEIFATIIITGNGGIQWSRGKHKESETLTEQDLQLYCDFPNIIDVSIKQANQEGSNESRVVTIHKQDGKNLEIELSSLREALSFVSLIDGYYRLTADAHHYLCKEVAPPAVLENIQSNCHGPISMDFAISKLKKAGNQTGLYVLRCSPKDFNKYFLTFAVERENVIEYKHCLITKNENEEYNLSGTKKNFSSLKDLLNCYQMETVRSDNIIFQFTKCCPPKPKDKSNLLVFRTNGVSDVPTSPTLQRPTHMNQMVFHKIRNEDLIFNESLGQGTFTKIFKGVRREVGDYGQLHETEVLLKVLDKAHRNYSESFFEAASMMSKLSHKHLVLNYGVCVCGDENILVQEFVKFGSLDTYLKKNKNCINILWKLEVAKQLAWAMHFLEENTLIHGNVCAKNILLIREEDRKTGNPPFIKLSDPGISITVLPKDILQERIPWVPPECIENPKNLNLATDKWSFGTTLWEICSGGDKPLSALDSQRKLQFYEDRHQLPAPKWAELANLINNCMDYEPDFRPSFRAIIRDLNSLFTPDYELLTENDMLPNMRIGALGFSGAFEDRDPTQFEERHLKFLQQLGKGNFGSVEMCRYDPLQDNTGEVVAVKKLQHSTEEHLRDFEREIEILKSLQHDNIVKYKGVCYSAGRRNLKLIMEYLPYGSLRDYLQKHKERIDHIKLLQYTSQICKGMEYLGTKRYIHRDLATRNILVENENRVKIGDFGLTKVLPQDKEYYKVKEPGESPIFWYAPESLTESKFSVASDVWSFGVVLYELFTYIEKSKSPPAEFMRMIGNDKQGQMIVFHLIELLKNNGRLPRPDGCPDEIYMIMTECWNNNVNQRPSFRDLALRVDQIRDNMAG
T3 sequence (P29597 whole entry): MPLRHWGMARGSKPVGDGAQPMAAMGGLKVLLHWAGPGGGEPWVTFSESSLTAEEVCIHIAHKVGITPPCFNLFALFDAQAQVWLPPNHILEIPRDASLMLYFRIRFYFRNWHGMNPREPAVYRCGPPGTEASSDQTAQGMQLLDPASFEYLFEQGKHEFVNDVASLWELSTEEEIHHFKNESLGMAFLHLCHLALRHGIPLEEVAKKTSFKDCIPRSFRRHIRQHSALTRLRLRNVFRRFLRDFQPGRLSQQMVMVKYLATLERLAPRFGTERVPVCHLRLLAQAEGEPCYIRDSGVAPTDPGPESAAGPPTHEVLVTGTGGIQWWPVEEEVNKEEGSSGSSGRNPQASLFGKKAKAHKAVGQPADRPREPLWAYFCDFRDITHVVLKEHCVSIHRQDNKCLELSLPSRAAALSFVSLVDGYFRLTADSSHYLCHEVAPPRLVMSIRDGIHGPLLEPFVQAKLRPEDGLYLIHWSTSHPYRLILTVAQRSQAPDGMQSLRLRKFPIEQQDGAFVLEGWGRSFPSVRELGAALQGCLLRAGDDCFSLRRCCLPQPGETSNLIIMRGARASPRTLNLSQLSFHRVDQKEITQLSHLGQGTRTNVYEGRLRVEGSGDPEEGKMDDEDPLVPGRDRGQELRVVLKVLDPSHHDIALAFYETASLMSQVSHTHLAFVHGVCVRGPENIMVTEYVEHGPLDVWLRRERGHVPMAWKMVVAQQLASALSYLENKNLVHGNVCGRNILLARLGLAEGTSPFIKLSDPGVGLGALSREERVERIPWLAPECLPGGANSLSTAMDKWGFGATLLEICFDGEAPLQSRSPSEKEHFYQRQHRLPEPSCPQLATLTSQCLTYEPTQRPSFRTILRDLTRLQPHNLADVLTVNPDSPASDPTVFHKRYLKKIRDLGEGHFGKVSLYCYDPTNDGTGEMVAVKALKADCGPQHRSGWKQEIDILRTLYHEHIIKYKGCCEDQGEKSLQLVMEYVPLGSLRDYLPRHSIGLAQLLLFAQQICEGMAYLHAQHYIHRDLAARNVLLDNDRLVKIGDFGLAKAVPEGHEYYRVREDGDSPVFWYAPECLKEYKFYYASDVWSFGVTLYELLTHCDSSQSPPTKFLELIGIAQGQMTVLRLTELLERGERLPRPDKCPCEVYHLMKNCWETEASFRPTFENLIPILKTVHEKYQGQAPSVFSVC
T4 sequence (P23458 whole entry): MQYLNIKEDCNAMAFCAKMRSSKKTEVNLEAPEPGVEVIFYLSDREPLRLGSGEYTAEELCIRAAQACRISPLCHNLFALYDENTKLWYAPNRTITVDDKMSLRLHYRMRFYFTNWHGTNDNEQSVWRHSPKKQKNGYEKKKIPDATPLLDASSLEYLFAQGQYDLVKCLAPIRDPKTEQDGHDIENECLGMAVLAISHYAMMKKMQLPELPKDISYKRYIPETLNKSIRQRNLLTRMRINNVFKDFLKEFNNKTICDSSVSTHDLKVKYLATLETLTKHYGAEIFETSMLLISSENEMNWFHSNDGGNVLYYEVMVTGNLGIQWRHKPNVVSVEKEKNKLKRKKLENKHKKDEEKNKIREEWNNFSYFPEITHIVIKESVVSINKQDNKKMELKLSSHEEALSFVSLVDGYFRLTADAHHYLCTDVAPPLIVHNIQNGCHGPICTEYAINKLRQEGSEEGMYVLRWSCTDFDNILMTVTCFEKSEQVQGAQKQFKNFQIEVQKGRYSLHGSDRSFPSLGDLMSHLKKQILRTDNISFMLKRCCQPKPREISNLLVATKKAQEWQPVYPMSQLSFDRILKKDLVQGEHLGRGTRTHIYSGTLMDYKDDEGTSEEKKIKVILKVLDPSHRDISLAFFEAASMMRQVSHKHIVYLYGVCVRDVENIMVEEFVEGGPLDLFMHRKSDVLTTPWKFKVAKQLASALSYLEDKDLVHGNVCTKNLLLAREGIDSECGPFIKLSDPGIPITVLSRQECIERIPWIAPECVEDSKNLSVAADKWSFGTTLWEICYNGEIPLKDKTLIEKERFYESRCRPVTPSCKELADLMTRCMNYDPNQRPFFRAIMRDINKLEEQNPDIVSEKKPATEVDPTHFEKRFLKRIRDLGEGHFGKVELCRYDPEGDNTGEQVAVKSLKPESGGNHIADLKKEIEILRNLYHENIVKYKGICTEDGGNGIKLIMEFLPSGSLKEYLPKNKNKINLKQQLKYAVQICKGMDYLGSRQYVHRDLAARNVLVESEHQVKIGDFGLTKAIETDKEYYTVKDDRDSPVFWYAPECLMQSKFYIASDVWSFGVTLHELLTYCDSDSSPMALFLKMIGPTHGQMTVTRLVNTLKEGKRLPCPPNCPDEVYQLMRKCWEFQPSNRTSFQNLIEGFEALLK

## CC1CN(C(=O)n2cc(-c3ccnc4[nH]cnc34)cn2)CC1C#N (stereo not drawn) [Example 1074, 1-(4-(3H-imidazo[4,5-b]pyridin-7-yl)-1H-pyrazole-1-carbonyl)-4-methylpyrrolidine-3-carbonitrile]
Recombinant JAK3
  IC50: > 1 µM
Recombinant JAK2
  IC50: > 1 µM
Recombinant TYK2
  IC50: > 1 µM
[1]
  IC50: > 10 µM
Recombinant JAK1
  IC50: > 10 µM
[2]
  IC50: > 10 µM

## CC(NC(=O)Nc1ccc(-c2ccnc3[nH]c(=O)[nH]c23)cc1)C(F)(F)F (stereo not drawn) [Example 1002, 1-(1,1,1-trifluoropropan-2-yl)-3-(4-(2,3-dihydro-2-oxo-1H-imidazo[4,5-b]pyridin-7-yl)phenyl)urea]
Recombinant JAK3
  IC50: < 0.5 µM
Recombinant JAK2
  IC50: < 0.5 µM
Recombinant TYK2
  IC50: > 0.5 µM
[1]
  IC50: > 10 µM
Recombinant JAK1
  IC50: < 0.5 µM
[2]
  IC50: > 10 µM

## CC(C)[C@@H](C#N)NC(=O)n1cc(-c2ccnc3[nH]cnc23)cn1 [Example 1073, N-((S)-1-cyano-2-methylpropyl)-4-(3H-imidazo[4,5-b]pyridin-7-yl)-1H-pyrazole-1-carboxamide]
Recombinant JAK3
  IC50: > 0.5 µM
Recombinant JAK2
  IC50: > 0.5 µM
Recombinant TYK2
  IC50: > 0.5 µM
[1]
  IC50: > 1 µM
Recombinant JAK1
  IC50: > 1 µM
[2]
  IC50: > 10 µM

## N#CC1CCN(C(=O)n2cc(-c3ccnc4[nH]c(=O)[nH]c34)cn2)C1 (stereo not drawn) [Example 1055, 1-(4-(2-oxo-2,3-dihydro-1H-imidazo[4,5-b]pyridin-7-yl)-1H-pyrazole-1-carbonyl)pyrrolidine-3-carbonitrile]
Recombinant JAK3
  IC50: > 1 µM
Recombinant JAK2
  IC50: < 0.5 µM
Recombinant TYK2
  IC50: > 0.5 µM
[1]
  IC50: > 10 µM
Recombinant JAK1
  IC50: > 1 µM
[2]
  IC50: > 10 µM

## CC(C)N1CCC(C(O)(c2ccc(-n3cc(-c4ccnc5[nH]cnc45)cn3)nc2)C(F)(F)F)CC1 (stereo not drawn) [Example 1240, 1-(6-(4-(3H-imidazo[4,5-b]pyridin-7-yl)-1H-pyrazol-1-yl)pyridin-3-yl)-2,2,2-trifluoro-1-(1-isopropylpiperidin-4-yl)ethanol]
Recombinant JAK3
  IC50: > 0.03 µM
Recombinant JAK2
  IC50: > 0.03 µM
Recombinant TYK2
  IC50: > 1 µM
[1]
  IC50: > 0.5 µM
Recombinant JAK1
  IC50: > 0.01 µM
[2]
  IC50: > 1 µM

## CC(F)(c1ccc(-n2cc(-c3ccnc4[nH]cnc34)cn2)nc1)C(F)(F)F (stereo not drawn) [Example 1128, 7-(1-(5-(1,1,1,2-tetrafluoropropan-2-yl)pyridin-2-yl)-1H-pyrazol-4-yl)-3H-imidazo[4,5-b]pyridine]
Recombinant JAK3
  IC50: > 0.5 µM
Recombinant JAK2
  IC50: > 0.5 µM
Recombinant TYK2
  IC50: > 1 µM
[1]
  IC50: > 1 µM
Recombinant JAK1
  IC50: < 0.1 µM
[2]
  IC50: > 10 µM

## OCC(Cc1ccc(-n2cc(-c3ccnc4[nH]cnc34)cn2)nc1)C(F)(F)F (stereo not drawn) [Example 1191, 3-(6-(4-(3H-imidazo[4,5-b]pyridin-7-yl)-1H-pyrazol-1-yl)pyridin-3-yl)-2-(trifluoromethyl)propan-1-ol]
Recombinant JAK3
  IC50: < 0.1 µM
Recombinant JAK2
  IC50: < 0.1 µM
Recombinant TYK2
  IC50: > 1 µM
[1]
  IC50: > 1 µM
Recombinant JAK1
  IC50: < 0.1 µM
[2]
  IC50: > 1 µM

## N#CC(c1ccc(-n2cc(-c3ccnc4[nH]cnc34)cn2)nc1)N1CC(F)(F)C1 (stereo not drawn) [Example 1111, 2-(6-(4-(3H-imidazo[4,5-b]pyridin-7-yl)-1H-pyrazol-1-yl)pyridin-3-yl)-2-(3,3-difluoroazetidin-1-yl)acetonitrile]
Recombinant JAK3
  IC50: < 0.5 µM
Recombinant JAK2
  IC50: > 0.5 µM
Recombinant TYK2
  IC50: > 10 µM
[1]
  IC50: > 10 µM
Recombinant JAK1
  IC50: < 0.5 µM
[2]
  IC50: > 10 µM

## CCN1CCC(C(O)(c2ccc(-n3cc(-c4ccnc5[nH]cnc45)cn3)nc2)C(F)(F)F)CC1 (stereo not drawn) [Example 1221, 1-(6-(4-(3H-imidazo[4,5-b]pyridin-7-yl)-1H-pyrazol-1-yl)pyridin-3-yl)-1-(1-ethylpiperidin-4-yl)-2,2,2-trifluoroethanol]
Recombinant JAK3
  IC50: < 0.1 µM
Recombinant JAK2
  IC50: < 0.1 µM
Recombinant TYK2
  IC50: > 0.1 µM
[1]
  IC50: > 0.75 µM
Recombinant JAK1
  IC50: < 0.1 µM
[2]
  IC50: > 1 µM

## N#CCc1ccc(-n2cc(-c3ccnc4[nH]cnc34)cn2)cc1 [Example 1099, 2-(4-(4-(3H-imidazo[4,5-b]pyridin-7-yl)-1H-pyrazol-1-yl)phenyl)acetonitrile]
Recombinant JAK3
  IC50: < 0.5 µM
Recombinant JAK2
  IC50: < 0.5 µM
Recombinant TYK2
  IC50: > 1 µM
[1]
  IC50: > 1 µM
Recombinant JAK1
  IC50: < 0.5 µM
[2]
  IC50: > 10 µM

## N#CC1(c2ccc(-n3cc(-c4ccnc5[nH]cnc45)cn3)nc2)CC1 [Example 1109, 1-(6-(4-(3H-imidazo[4,5-b]pyridin-7-yl)-1H-pyrazol-1-yl)pyridin-3-yl)cyclopropanecarbonitrile]
Recombinant JAK3
  IC50: < 0.5 µM
Recombinant JAK2
  IC50: < 0.5 µM
Recombinant TYK2
  IC50: > 10 µM
[1]
  IC50: > 1 µM
Recombinant JAK1
  IC50: < 0.5 µM
[2]
  IC50: > 10 µM

## N#CCC(=O)Nc1ccc(-n2cc(-c3ccnc4[nH]cnc34)cn2)cc1 [Example 1102, N-(4-(4-(3H-imidazo[4,5-b]pyridin-7-yl)-1H-pyrazol-1-yl)phenyl)-2-cyanoacetamide]
Recombinant JAK3
  IC50: > 0.5 µM
Recombinant JAK2
  IC50: > 0.5 µM
Recombinant TYK2
  IC50: > 1 µM
[1]
  IC50: > 10 µM
Recombinant JAK1
  IC50: < 0.5 µM
[2]
  IC50: > 10 µM

## OC(c1ccc(-n2cc(-c3ccnc4[nH]cnc34)cn2)cn1)C(F)(F)F (stereo not drawn) [Example 1173, 1-(5-(4-(3H-imidazo[4,5-b]pyridin-7-yl)-1H-pyrazol-1-yl)pyridin-2-yl)-2,2,2-trifluoroethanol]
Recombinant JAK3
  IC50: < 0.1 µM
Recombinant JAK2
  IC50: < 0.1 µM
Recombinant TYK2
  IC50: > 1 µM
[1]
  IC50: 10 µM
Recombinant JAK1
  IC50: < 0.1 µM
[2]
  IC50: > 10 µM

## CS(=O)(=O)NC(c1ccc(-n2cc(-c3ccnc4[nH]cnc34)cn2)nc1)C(F)(F)F (stereo not drawn) [Example 1187]
Recombinant JAK3
  IC50: < 0.1 µM
Recombinant JAK2
  IC50: > 0.1 µM
Recombinant TYK2
  IC50: > 1 µM
[1]
  IC50: > 1 µM
Recombinant JAK1
  IC50: < 0.1 µM
[2]
  IC50: > 1 µM

## N#CC(c1ccc(-n2cc(-c3ccnc4[nH]cnc34)cn2)cc1)N1CCOCC1 (stereo not drawn) [Example 1101, 2-(4-(4-(3H-imidazo[4,5-b]pyridin-7-yl)-1H-pyrazol-1-yl)phenyl)-2-morpholinoacetonitrile]
Recombinant JAK3
  IC50: > 1 µM
Recombinant JAK2
  IC50: > 0.5 µM
Recombinant TYK2
  IC50: > 10 µM
[1]
  IC50: > 10 µM
Recombinant JAK1
  IC50: > 0.5 µM
[2]
  IC50: > 10 µM

## N#CCc1cccc(-n2cc(-c3ccnc4[nH]cnc34)cn2)c1 [Example 1106, 2-(3-(4-(3H-imidazo[4,5-b]pyridin-7-yl)-1H-pyrazol-1-yl)phenyl)acetonitrile]
Recombinant JAK3
  IC50: < 0.5 µM
Recombinant JAK2
  IC50: < 0.5 µM
Recombinant TYK2
  IC50: > 1 µM
[1]
  IC50: > 1 µM
Recombinant JAK1
  IC50: < 0.5 µM
[2]
  IC50: > 10 µM

## CC(NC(=O)n1cc(-c2ccnc3[nH]c(=O)[nH]c23)cn1)C(=O)N1CC(C#N)C1 (stereo not drawn) [Example 1058, N-(1-(3-cyanoazetidin-1-yl)-1-oxopropan-2-yl)-4-(2-oxo-2,3-dihydro-1H-imidazo[4,5-b]pyridin-7-yl)-1H-pyrazole-1-carboxamide]
Recombinant JAK3
  IC50: > 10 µM
Recombinant JAK2
  IC50: > 1 µM
Recombinant TYK2
  IC50: > 10 µM
[1]
  IC50: > 10 µM
Recombinant JAK1
  IC50: > 1 µM
[2]
  IC50: > 10 µM

## CC(c1ccc(-n2cc(-c3ccnc4[nH]cnc34)cn2)nc1)S(C)(=O)=O (stereo not drawn) [Example 1158, 7-(1-(5-(1-(methylsulfonyl)ethyl)pyridin-2-yl)-1H-pyrazol-4-yl)-3H-imidazo[4,5-b]pyridine]
Recombinant JAK3
  IC50: > 0.1 µM
Recombinant JAK2
  IC50: > 0.1 µM
Recombinant TYK2
  IC50: > 1 µM
[1]
  IC50: > 1 µM
Recombinant JAK1
  IC50: < 0.1 µM
[2]
  IC50: > 1 µM
